Laboratory results taken from patent publication US10993912B2, “Carrier-antibody compositions and methods of making and using the same” (MAYO FOUNDATION FOR MEDICAL EDUCATION AND RESEARCH, priority 2014, dated 2021).

Tests used:
ABX [1] = biological target: T1, ABX (Homo sapiens, UniProt P02768); experiment: Binding of cisplatin to ABX, free cisplatin by HPLC; details: ABX 5 mg/ml, cisplatin 0.5 mg/ml, room temperature 30 minutes
T1 construct: purchased Celgene Corporation, Summit, N.J

ABX [2] = biological target: T1, ABX; experiment: Bio-Layer Interferometry (BLItz) binding assay of antibody and ABX; details: for dependence of binding affinity to ABX on pH / temperature: pH 3, 5, 7, 9, for BEV also RT, 37° C. and 58° C.
Procedure: The association and dissociation constants were calculated using the BLItz software.

[3] = system: A375 human melanoma cells; experiment: A375 xenograft efficacy in athymic nude mice; assay type: in vivo; details: Example 5; ABX 30 mg/kg, BEV 12 mg/kg, tumors about 700 mm^3 at treatment
Procedure: Tumor response was determined at day 7 post-treatment by the percent change in tumor size from the day of treatment.
In vivo experiments were performed at least 2 times. The number of mice required for those experiments was determined by power analysis. Mouse tumors were measured 2-3 times/week and mice were sacrificed when the tumor was 10% by weight. […] The end point of the mouse studies was median survival. Kaplan-Meier curves were generated and Mantle-Cox test was performed to determine significance of median survival between treatment groups. The in vitro results presented are representative of at least 5 repeated experiments. Statistical analyses of in vitro and in vivo percent change from baseline experiments were done using the Student's t-test.
(§1) To test tumor efficacy, 1×10^6 A375 human melanoma cells were implanted into the right flank of athymic nude mice (Harlan Sprague Dawley, Indianapolis, Ind.). […] Tumor size was monitored 3 times/week and tumor volume was calculated with the following equation: (length*width^2)/2. Mice were sacrificed when the tumor size equaled 10% of the mouse body weight or about 2500 mm^3. The day 7 percent change from baseline was calculated as follows: [(tumor size on treatment day-tumor size on day 7)/tumor size on treatment day]*100.

[4] = system: A375 human melanoma cells; experiment: A375 xenograft, pretreatment with BEV before AB160; assay type: in vivo, athymic nude mice; details: 12 mg/kg dose
From the text: Data is represented at day 7-post and 10-day treatment as tumor volume in mm^3.
Data is represented at day 7-post and day 10-post treatment as tumor volume in mm^3. F 11A-E track tumor size over 10 days. […] See also FIG. 11F and FIG. 11G.

[5] = system: Daudi human lymphoma cells; experiment: Daudi xenograft efficacy in athymic nude mice; assay type: in vivo; details: ABX 30 mg/kg, rituximab 12 mg/kg
Procedure: Tumor response was determined at day 7 post-treatment by the percent change in tumor size from the first day of treatment.
as §1

Row | Compound | cisplatin remaining in the supernatant (ABX [1]) [%] | binding affinity to ABX (in words) (ABX [2]) | dependence of binding affinity to ABX on pH / temperature (ABX [2]) | median survival [3] [days] | therapeutic effect of BEV alone [4] | median survival [5] [days]
1 | N.N.[Cl][Pt][Cl] [cisplatin] | 40 | – | – | – | – | –
2 | bevacizumab | – | picomolar range | highest binding affinity observed when the particles are formed at pH 5 and 58 °C | 14 | not therapeutic | –
3 | rituximab | – | picomolar range | decreased with higher pH | – | – | 12
